Consider 15 compounds from ChEMBL document CHEMBL3046049, “Protoporphyrinogen-IX Oxidase Inhibition by N-(2, 4, 5-Trisubstituted phenyl)-3, 4, 5, 6-tetrahydrophthalimides” (J Pestic Sci, 1997).

Structures are written as SMILES.

One experiment concerns Scenedesmus acutus. The experiment can be described thus: Inhibition of light-induced ethane formation in Scenedesmus acutus after 20 hr. In kind it is functional, organism-based. To be noted: read-out: pI50 (converted).
Experiment [1] deals with T1, Protoporphyrinogen IX oxidase (Zea mays, UniProt Q9FYV8).
T1 sequence (Q9FYV8 whole entry): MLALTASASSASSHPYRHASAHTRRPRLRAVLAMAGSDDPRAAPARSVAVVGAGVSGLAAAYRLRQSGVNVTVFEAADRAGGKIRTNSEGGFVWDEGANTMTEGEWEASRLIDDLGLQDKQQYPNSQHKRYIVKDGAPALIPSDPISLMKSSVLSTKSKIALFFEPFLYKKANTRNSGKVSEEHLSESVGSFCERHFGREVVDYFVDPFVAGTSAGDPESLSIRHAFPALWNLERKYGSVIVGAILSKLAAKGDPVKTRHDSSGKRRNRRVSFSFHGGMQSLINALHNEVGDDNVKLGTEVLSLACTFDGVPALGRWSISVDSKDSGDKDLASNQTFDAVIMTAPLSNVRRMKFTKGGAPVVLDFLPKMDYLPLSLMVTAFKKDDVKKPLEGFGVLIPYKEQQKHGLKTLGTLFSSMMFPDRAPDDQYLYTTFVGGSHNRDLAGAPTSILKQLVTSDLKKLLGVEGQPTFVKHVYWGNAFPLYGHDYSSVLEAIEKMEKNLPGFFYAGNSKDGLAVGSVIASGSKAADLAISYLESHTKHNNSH
In words: Inhibition of protoporphyrinogen IX oxidase in Zea mays (maize) seed after 5 min by Dixon plot analysis. The settings on record: read-out: pI50 (converted).

Take `C#CCOc1cc(N2C(=O)C3=C(CCCC3)C2=O)ccc1Cl`: the IC50 was 501 nM with Scenedesmus acutus and 0.398 nM in experiment [1].

Turning to `C#CCOc1cc(N2C(=O)C3=C(CCCC3)C2=O)c(F)cc1Cl`, the figures for the IC50 (with Scenedesmus acutus; in experiment [1]) were 126 nM and 2 nM, respectively.

On to `O=C1C2=C(CCCC2)C(=O)N1c1ccc(Cl)cc1F`, for which the figures for the IC50 (in the experiment with Scenedesmus acutus; in experiment [1]) were 251 nM and 3.98 nM, respectively.

Regarding `CC(C)OC(=O)c1cc(N2C(=O)C3=C(CCCC3)C2=O)c(F)cc1Cl`, the IC50 is 79.4 nM in the experiment on Scenedesmus acutus and 1.26 nM in experiment [1].

Turning to `CC(C)OC(=O)c1cc(N2C(=O)C3=C(CCCC3)C2=O)ccc1Cl`, the IC50 in the experiment with Scenedesmus acutus is 200 nM; in experiment [1], 1 nM.

`C#CCOc1cc(-n2nc3c(c2Cl)CCCC3)c(F)cc1Cl`: the IC50 in experiment [1] was 1 nM.

For `O=C1C2=C(CCCC2)C(=O)N1c1ccccc1`, the IC50 in the experiment with Scenedesmus acutus was 10000 nM; in experiment [1] it was 1580 nM.

Consider `O=C1C2=C(CCCC2)C(=O)N1c1ccccc1F`, for which the IC50 with Scenedesmus acutus is 10000 nM; in experiment [1], 2510 nM.

Turning to `C#CCN1C(=O)COc2ccc(N3C(=O)C4=C(CCCC4)C3=O)cc21`, the values for the IC50 (in the experiment on Scenedesmus acutus; in experiment [1]) were 631 nM and 1 nM, respectively.

`O=C1C2=C(CCCC2)C(=O)N1c1ccc(Cl)cc1` [CHLOROPHTHALIUM]: the IC50 in the experiment with Scenedesmus acutus was 1000 nM; in experiment [1], 25.1 nM.

Consider `CCCCCOC(=O)COc1cc(N2C(=O)C3=C(CCCC3)C2=O)c(F)cc1Cl` [FLUMICIORAC-PENTYL], for which the IC50 in experiment [1] was 1.1 nM.

Consider `C#CCN1C(=O)COc2cc(F)c(N3C(=O)C4=C(CCCC4)C3=O)cc21` [FLUMIOXAZIN], for which, in the experiment with Scenedesmus acutus, the IC50 is 316 nM.

Regarding `C#CC(C)Oc1cc(N2C(=O)C3=C(CCCC3)C2=O)c(F)cc1Cl` (configuration not stated) [FLUMIPROPYN], the IC50 in the experiment on Scenedesmus acutus is 105 nM; in experiment [1], 1 nM.

`COC(=O)CSc1cc(/N=c2\sc(=O)n3n2CCCC3)c(F)cc1Cl` [FLUTHIACETMETHYL]: the IC50 in the experiment with Scenedesmus acutus was 955 nM; in experiment [1], 47.9 nM.

For the compound `CC(C)=C1OC(=O)N(c2cc(OC3CCCC3)c(Cl)cc2F)C1=O` [PENTOXAZONE], the IC50 in the experiment with Scenedesmus acutus is 631 nM; in experiment [1] it was 5.25 nM.
